From PubChem BioAssay (NCI)
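Protocol summary: plate cells (96-well), add compound at 5 concentrations, incubate 48 h, interpolate endpoints linearly. TGI: concentration producing complete growth inhibition.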

Tested on: SF-539 CNS
Experiment: NCI anticancer screen, dose series, 48 h

Row | SMILES | TGI
1 | O=[N+]([O-])C[C@@]12O[C@]3(O)C4C5CC(C6C5C3C61)C42 (stereo not given in full) | > 100 µM
2 | Cc1ccc(/C=N/Nc2cc(C)c3cccc(C)c3n2)s1 | 41.1 µM
3 | CO/N=C(\C(=O)OC(=NC1CCCCC1)NC1CCCCC1)c1csc(NC(c2ccccc2)(c2ccccc2)c2ccccc2)n1 | > 10 µM
4 | CCCC(=O)NC(NC1CCCCC1)(C(=O)OCC)C(F)(F)F (stereo not given) | > 100 µM
5 | Cc1c2n(c(=O)[nH]c1=O)C1OC(CO)C(O2)C1O (stereo not given) | > 100 µM
6 | CN(CCSCCN(C)C(=O)OC(C)(C)C)C(=O)OC(C)(C)C | > 100 µM
7 | CC(C)(C)OC(=O)N(CCCCN(CCCNC(=O)C(F)(F)F)C(=O)OC(C)(C)C)CCCNC(=O)C(F)(F)F | > 100 µM
8 | C=CCCON(C(=O)OC(C)(C)C)C(C)(C)C | > 100 µM
9 | [N-]=[N+]=NC1(Cc2ccccc2)C(=O)c2cccc3c2N(CCC3)C1=O (stereo not given) | > 100 µM
10 | COC(=O)c1c(O)ccc2c1c1c(n2Cc2cc(OC)cc(OC)c2)C(=O)c2ccccc2C1 | > 100 µM
11 | CC(=O)CCn1c(=S)sc2ccccc21 | > 100 µM
12 | NC(N)=NCCN1CC2CCC(CC2)C1 | > 100 µM
13 | COc1cc(OC)c2nc(C)c(CCCl)c(Cl)c2c1 | > 100 µM
14 | COc1cc(Nc2nc3ccccc3nc2C(=O)O)cc(OC)c1OC | > 100 µM
15 | O=[N+]([O-])c1cccc(C2=NN(c3ccccc3)C[N+](c3ccc(Br)cc3)=N2)c1 | > 100 µM

Tested on: HOP-92 NSCLC
Experiment: NCI anticancer screen, dose series, 48 h

Row | SMILES | TGI
16 | O=[N+]([O-])C[C@@]12O[C@]3(O)C4C5CC(C6C5C3C61)C42 (stereo not given in full) | > 100 µM
17 | Cc1ccc(/C=N/Nc2cc(C)c3cccc(C)c3n2)s1 | 59.4 µM
18 | CO/N=C(\C(=O)OC(=NC1CCCCC1)NC1CCCCC1)c1csc(NC(c2ccccc2)(c2ccccc2)c2ccccc2)n1 | > 10 µM
19 | CCCC(=O)NC(NC1CCCCC1)(C(=O)OCC)C(F)(F)F (stereo not given) | > 100 µM
20 | Cc1c2n(c(=O)[nH]c1=O)C1OC(CO)C(O2)C1O (stereo not given) | > 100 µM
21 | CN(CCSCCN(C)C(=O)OC(C)(C)C)C(=O)OC(C)(C)C | > 100 µM
22 | CC1(C)/C(=N\NC(N)=O)C2CCC1C2 (stereo not given) | > 100 µM
23 | CO[C@@]12C[C@@H](C)C3=CCC(C)=C3CC1=C(C)C(=O)O2 | > 100 µM
24 | CC1(C)[C@@H](Cn2ccc(=O)[nH]c2=O)CC[C@@]1(C)CO | > 100 µM
25 | O=C1/C(=C/c2ccc(Br)s2)NC(=S)N1c1ccccc1 | 71.6 µM
26 | CC(C)(C)OC(=O)N(CCCCN(CCCNC(=O)C(F)(F)F)C(=O)OC(C)(C)C)CCCNC(=O)C(F)(F)F | > 100 µM
27 | C=CCCON(C(=O)OC(C)(C)C)C(C)(C)C | > 100 µM
28 | [N-]=[N+]=NC1(Cc2ccccc2)C(=O)c2cccc3c2N(CCC3)C1=O (stereo not given) | > 100 µM
29 | O=c1oc2ccccc2cc1-c1cc2ccccn2c1 | > 100 µM
30 | O=C(N/N=C(\c1ccccc1)c1ccccn1)NC1CCCCC1 | > 100 µM
31 | CC(=O)CCn1c(=S)sc2ccccc21 | > 100 µM
32 | NC(N)=NCCN1CC2CCC(CC2)C1 | > 100 µM
33 | COc1cc(Nc2nc3ccccc3nc2C(=O)O)cc(OC)c1OC | 92.7 µM
34 | O=[N+]([O-])c1cccc(C2=NN(c3ccccc3)C[N+](c3ccc(Br)cc3)=N2)c1 | > 100 µM

Tested on: SNB-19 CNS
Experiment: NCI anticancer screen, dose series, 48 h

Row | SMILES | TGI
35 | O=[N+]([O-])C[C@@]12O[C@]3(O)C4C5CC(C6C5C3C61)C42 (stereo not given in full) | > 100 µM
36 | Cc1ccc(/C=N/Nc2cc(C)c3cccc(C)c3n2)s1 | > 100 µM
37 | CO/N=C(\C(=O)OC(=NC1CCCCC1)NC1CCCCC1)c1csc(NC(c2ccccc2)(c2ccccc2)c2ccccc2)n1 | > 10 µM
38 | CCCC(=O)NC(NC1CCCCC1)(C(=O)OCC)C(F)(F)F (stereo not given) | > 100 µM
39 | Cc1c2n(c(=O)[nH]c1=O)C1OC(CO)C(O2)C1O (stereo not given) | > 100 µM
40 | CN(CCSCCN(C)C(=O)OC(C)(C)C)C(=O)OC(C)(C)C | > 100 µM
41 | CC1(C)/C(=N\NC(N)=O)C2CCC1C2 (stereo not given) | > 100 µM
42 | CO[C@@]12C[C@@H](C)C3=CCC(C)=C3CC1=C(C)C(=O)O2 | > 100 µM
43 | CC1(C)[C@@H](Cn2ccc(=O)[nH]c2=O)CC[C@@]1(C)CO | > 100 µM
44 | O=C1/C(=C/c2ccc(Br)s2)NC(=S)N1c1ccccc1 | > 100 µM
45 | CC(C)(C)OC(=O)N(CCCCN(CCCNC(=O)C(F)(F)F)C(=O)OC(C)(C)C)CCCNC(=O)C(F)(F)F | > 100 µM
46 | C=CCCON(C(=O)OC(C)(C)C)C(C)(C)C | > 100 µM
47 | CCOC(=O)Nc1[nH]cc(-c2ccccc2)c1C#N | > 100 µM
48 | O=c1oc2ccccc2cc1-c1cc2ccccn2c1 | > 100 µM
49 | COC(=O)c1c(O)ccc2c1c1c(n2Cc2cc(OC)cc(OC)c2)C(=O)c2ccccc2C1 | > 100 µM
50 | O=C(N/N=C(\c1ccccc1)c1ccccn1)NC1CCCCC1 | > 100 µM
51 | CC(=O)CCn1c(=S)sc2ccccc21 | > 100 µM
52 | NC(N)=NCCN1CC2CCC(CC2)C1 | > 100 µM
53 | COc1cc(OC)c2nc(C)c(CCCl)c(Cl)c2c1 | > 100 µM
54 | COc1cc(Nc2nc3ccccc3nc2C(=O)O)cc(OC)c1OC | > 100 µM
55 | O=[N+]([O-])c1cccc(C2=NN(c3ccccc3)C[N+](c3ccc(Br)cc3)=N2)c1 | > 100 µM

Tested on: SK-MEL-2 melanoma
Experiment: NCI anticancer screen, dose series, 48 h

Row | SMILES | TGI
56 | O=[N+]([O-])C[C@@]12O[C@]3(O)C4C5CC(C6C5C3C61)C42 (stereo not given in full) | > 100 µM
57 | Cc1ccc(/C=N/Nc2cc(C)c3cccc(C)c3n2)s1 | 33.2 µM
58 | CO/N=C(\C(=O)OC(=NC1CCCCC1)NC1CCCCC1)c1csc(NC(c2ccccc2)(c2ccccc2)c2ccccc2)n1 | > 10 µM
59 | CCCC(=O)NC(NC1CCCCC1)(C(=O)OCC)C(F)(F)F (stereo not given) | > 100 µM
60 | Cc1c2n(c(=O)[nH]c1=O)C1OC(CO)C(O2)C1O (stereo not given) | > 100 µM
61 | CN(CCSCCN(C)C(=O)OC(C)(C)C)C(=O)OC(C)(C)C | > 100 µM
62 | CC1(C)/C(=N\NC(N)=O)C2CCC1C2 (stereo not given) | > 100 µM
63 | CO[C@@]12C[C@@H](C)C3=CCC(C)=C3CC1=C(C)C(=O)O2 | > 100 µM
64 | CC1(C)[C@@H](Cn2ccc(=O)[nH]c2=O)CC[C@@]1(C)CO | > 100 µM
65 | O=C1/C(=C/c2ccc(Br)s2)NC(=S)N1c1ccccc1 | > 100 µM
66 | CC(C)(C)OC(=O)N(CCCCN(CCCNC(=O)C(F)(F)F)C(=O)OC(C)(C)C)CCCNC(=O)C(F)(F)F | > 100 µM
67 | C=CCCON(C(=O)OC(C)(C)C)C(C)(C)C | > 100 µM
68 | CCOC(=O)Nc1[nH]cc(-c2ccccc2)c1C#N | > 100 µM
69 | [N-]=[N+]=NC1(Cc2ccccc2)C(=O)c2cccc3c2N(CCC3)C1=O (stereo not given) | > 100 µM
70 | O=c1oc2ccccc2cc1-c1cc2ccccn2c1 | > 100 µM
71 | COC(=O)c1c(O)ccc2c1c1c(n2Cc2cc(OC)cc(OC)c2)C(=O)c2ccccc2C1 | > 100 µM
72 | O=C(N/N=C(\c1ccccc1)c1ccccn1)NC1CCCCC1 | > 100 µM
73 | CC(=O)CCn1c(=S)sc2ccccc21 | > 100 µM
74 | NC(N)=NCCN1CC2CCC(CC2)C1 | > 100 µM
75 | COc1cc(OC)c2nc(C)c(CCCl)c(Cl)c2c1 | > 100 µM
76 | O=[N+]([O-])c1cccc(C2=NN(c3ccccc3)C[N+](c3ccc(Br)cc3)=N2)c1 | > 100 µM

Tested on: K-562 leukemia
Experiment: NCI anticancer screen, dose series, 48 h

Row | SMILES | TGI
77 | O=[N+]([O-])C[C@@]12O[C@]3(O)C4C5CC(C6C5C3C61)C42 (stereo not given in full) | > 100 µM
78 | CO/N=C(\C(=O)OC(=NC1CCCCC1)NC1CCCCC1)c1csc(NC(c2ccccc2)(c2ccccc2)c2ccccc2)n1 | > 10 µM
79 | CCCC(=O)NC(NC1CCCCC1)(C(=O)OCC)C(F)(F)F (stereo not given) | > 100 µM
80 | Cc1c2n(c(=O)[nH]c1=O)C1OC(CO)C(O2)C1O (stereo not given) | > 100 µM
81 | CN(CCSCCN(C)C(=O)OC(C)(C)C)C(=O)OC(C)(C)C | > 100 µM
82 | CC1(C)/C(=N\NC(N)=O)C2CCC1C2 (stereo not given) | > 100 µM
83 | CO[C@@]12C[C@@H](C)C3=CCC(C)=C3CC1=C(C)C(=O)O2 | > 100 µM
84 | CC1(C)[C@@H](Cn2ccc(=O)[nH]c2=O)CC[C@@]1(C)CO | > 100 µM
85 | O=C1/C(=C/c2ccc(Br)s2)NC(=S)N1c1ccccc1 | > 100 µM
86 | CC(C)(C)OC(=O)N(CCCCN(CCCNC(=O)C(F)(F)F)C(=O)OC(C)(C)C)CCCNC(=O)C(F)(F)F | > 100 µM
87 | C=CCCON(C(=O)OC(C)(C)C)C(C)(C)C | > 100 µM
88 | CCOC(=O)Nc1[nH]cc(-c2ccccc2)c1C#N | > 100 µM
89 | [N-]=[N+]=NC1(Cc2ccccc2)C(=O)c2cccc3c2N(CCC3)C1=O (stereo not given) | > 100 µM
90 | O=c1oc2ccccc2cc1-c1cc2ccccn2c1 | > 100 µM
